Values quoted from earlier work, collected in patent EP2229962A1, “Medical-surgical devices with antibacterial coating for human or animal implant and a method for their production” (Martelli, Laura, priority 2009, dated 2010).
Where two headings read alike, the source gives them in different places.

[Ag+] [Ag^+ ions, Ag^+]
concentration of Ag^+ ions needed to perform an antibacterial action (bacteria; 1 ppb equivalent to 1 µg/l): at least 1 ppb | concentration of Ag^+ ions needed to perform an antibacterial action (bacteria; in the case of certain bacteria): ≥ 0.1 ppb | concentration above which there are cytotoxic effects to the surrounding tissue (surrounding tissue): > 35 ppb
